Experimental data reported in US20100099756A1, “USES OF INCENSOLE, INCENSOLE ACETATE AND DERIVATIVES THEREOF” (YISSUM RESEARCH DEVELOPMENT COMPANY OF THE HEBREW …, priority 2006, published 2010).

Assays:
[1] = tested on: NF-κB (p65 sub-unit); assay: p65 subunit immunostaining, nuclear accumulation of NF-κB in HeLa cells; type: cell-based; details: TNFα stimulation, IA 140 μM
Description: (A) IA inhibits IKK phosphorylation. HeLa cells were stimulated with TNFα (20 ng/ml for 20 minutes) in the absence or presence of IA (140 μM) as shown. Whole cell extracts were prepared and analyzed for the phosphoryation of IKKα and IKKβ by Western blotting (WB). (B) HeLa cells were stimulated with TNFα (20 ng/ml for 20 minutes) in the absence or presence of IA (140 μM). Cells were fixed and then stained with rabbit anti-p65 followed by anti-rabbit Rhodamine Red-labeled secondary Ab. and with DAPI for nuclei location (not shown). (B1) HeLa cells, no treatment; (B2) HeLa cells +IA; (B3) HeLa cells +TNF; (B4) HeLa cells +IA+TNF. The cells were examined under an Axioscope Zeiss microscope with a plan-Neofluor * 60 lens. Results of one of three independent experiments are shown.
p65 Subunit Immunostaining. HeLa Cells were preincubated with IA and then stimulated with TNFα as described in the IκBα degradation assay above. Cells were then fixed with formaldehyde 1%, permeabilized with 0.25% Triton X-100, stained with rabbit anti-p65 (Santa Cruz, Calif., USA) and visualized with anti-rabbit Rhodamine Red-labeled secondary antibody (Jackson ImmunoResearch, Baltimore, USA). Cells were also stained with DAPI (blue) for nuclei location (data not shown). The cells were examined under an Axioscope Zeiss microscope with a plan-Neofluor * 60 lens.

[2] = tested on: c-Fos; assay: c-Fos immunoreactivity in mouse brain; type: in vivo, female Sabra mice; details: 50 mg/kg i.p., 60 min after administration
Source text: The drawings were modified from plates 30; 38,45, 89 respectively from Paxinos and Franklin (2001). The atlas sections are arranged from anterior a to posterior d. The number under each section indicates its distance (mm) from the bregma. “A” is anterior to bregma and “P” is posterior to bregma.
For analysis of c-Fos immunoreactivity, positive nuclei were identified based on their round form and optical density at least twice that of background. The numbers of c-Fos immunoreactive nuclei from the right and left hemispheres were averaged to obtain a representative number for the given region from each mouse. Student t tests were performed comparing the control (vehicle) with the IA group.
The effect of IA on different brain regions were studied by looking at the effect of IA on c-Fos immunoreactivity in mice brains 60 min after administration of IA (50 mg/kg; i.p.). The c-Fos transcription factor is a product of an immediate early gene and its increase serves as a marker of enhanced neuronal activity. It is thus used in histological sections to map out brain regions that are activated or attenuated after treatment with psychoactive drugs [Werme, M., Ringholm, A., Olson, L. & Brene S. Differential patterns of induction of NGFI-B, Norl and c-fos mRNAs in striatal subregions by haloperidol and clozapine. Brain Res. 863, 112-119 (2000); and Dragunow, M., Robertson, G. S., Faull, R. L., Robertson, H. A. & Jansen, K. D2 dopamine receptor antagonists induce fos and related proteins in rat striatal neurons. (1990) Neuroscience 37, 287-294]. […] The central nucleus of the amygdala and the lateral septum play major roles in the expression of emotions [Thompson, B. L. & Rosen, J. B. Immediate-early gene expression in the central nucleus of the amygdala is not specific for anxiolytic or anxiogenic drugs. Neuropharmacology 50, 57-68 (2006); and Henry, B., Vale, W. & Markou, A. The effect of lateral septum corticotropin-releasing factor receptor 2 activation on anxiety is modulated by stress. J. Neurosci. 26, 9142-9152 (2006)]; it is assumed that c-Fos expression in the central nucleus of the amygdala is due to circuits that are engaged by both anxiolytic and anxiogenic drugs [Thompson, B. L. & Rosen, J. B. Immediate-early gene expression in the central nucleus of the amygdala is not specific for anxiolytic or anxiogenic drugs. Neuropharmacology 50, 57-68 (2006).]

SMILES: CC(=O)OC1CC/C(C)=C/CC/C(C)=C/CC2(C(C)C)CCC1(C)O2 (stereo not shown) [IA, incensole acetate]
- nuclear accumulation of NF-κB (p65) [1]: inhibited the nuclear accumulation of NF-κB
- c-Fos in the central nucleus of the amygdala [2]: significantly increased c-Fos
- c-Fos in the hippocampal CA3 region [2]: significantly reducing c-Fos
- c-Fos in the lateral septum [2]: significantly increased c-Fos
- c-Fos in the medial striatum [2]: significantly reducing c-Fos
- c-Fos in the motor cortex [2]: significantly reducing c-Fos
- c-Fos in the solitary nucleus [2]: significantly increased c-Fos
